Test results: patent US20120003270A1, “6-SUBSTITUTED ISOFLAVONOID COMPOUNDS AND USES THEREOF” (priority 2008, published 2012)

Key:
iNOS = test: NO synthesis in LPS-stimulated RAW 264.7 (Griess); assay type: cell-based, mouse; settings: LPS 50 ng/ml, 16 hrs
Method: The mouse macrophage cell line RAW 264.7 was cultured in DMEM supplemented with foetal calf serum (FCS), 2 mM glutamine and 50 U/ml penicillin/streptomycin. Cells were treated with either the compounds of the formula (I) (in 0.025% DMSO) or vehicle alone, and added one hour before 50 ng/ml LPS, which induces iNOS and the production of NO. After incubation for 16 hrs, culture media was collected. Nitrite concentration is a quantitative indicator of NO production and was determined by the Griess Reaction. Briefly, 100 μL of Griess reagent was added to 50 μL of each supernatant in duplicate. The absorbance at 550 nm was measured (Molecular Devices, SpectraMax 250 microplate spectrophotometer, CA, USA), and nitrite concentrations were determined against a standard curve of sodium nitrite.

IFN-γ and IL-6 = test: Splenocyte cytokine production (ELISA); assay type: cell-based, mouse; settings: 10 μM, 3 day incubation, culture supernatant
Method: Male Skh-1:HR1 (hairless) mice, approximately six weeks old were killed by cervical dislocation. Single cell suspensions were made from the spleen and erythrocytes were lysed in buffer (0.14M NH4Cl, 17 mM Tris, pH 7.2). The remaining splenocytes were cultured in RPMI-1640 (Gibco) supplemented with 10% (v:v) FBS, 200 mM L-glutamine, penicillin/streptomycin and […] 2-mercaptoethanol. Splenocytes were added to quadruplicate wells containing either concanavalin A (ConA, Sigma-Aldrich—0.4 μg/well), LPS (Sigma-Aldrich—1 μg/well) or no mitogen, as well 10 μM of test compound in DMSO. Samples were analysed after a 3 day incubation at 37° C. in 5% CO2 in air. Methylthiazoletetrazolium (MTT) is bioreduced by viable cells into a coloured formazan product that is soluble in DMSO. Thus the quantity of formazan product is directly proportional to the number of living cells in culture, and can be measured using a spectrophotometer at 570 nm. MTT was added to each well, incubated for a further 4 hrs and then colour developed with 0.04N HCl in isopropanol. Culture supernatants were stored after collection at −80° C. and both T and B cells analysed by ELISA (BD Biosciences) for IFN-γ (a Th-1 cytokine) and for T cells alone, IL-6 (a Th-2 cytokine).

AA-induced ear swelling = test: Murine ear inflammation assay, arachidonic acid (AA); assay type: in vivo, mouse; settings: 25 mg/kg i/p; for Change in ear thickness (mean ± SD, ×0.01 mm): 1 hr post-AA
Method: Groups of 5-6 female BALB/c mice (ARC, WA, Australia), weighing 15-21 g were injected intraperitoneally (i/p) with selected compounds of the formula (I) at 25 mg/kg delivered in polyethylene glycol (PEG) 400: phosphate buffered saline (PBS) 1:1 or ethanol: propanediol:PBS 4:9:7 either 30 min prior to or immediately before the inflammogen was applied to the ears. Mice were anaesthetised using isoflurane and baseline thickness of both ears was measured using a spring micrometer. Each mouse received a total of […] of either AA in ethanol (50 mg/ml or 200 mg/ml) or PMA in either ethanol or acetone (0.2 mg/ml) applied to the inner and outer surfaces of each pinna (i.e. 0.5 mg or 2 mg AA or 2 μg PMA per ear). Mice were anaesthetised again to re-measure the ears at 1 hr post-AA application and 5 hr after PMA. The difference in ear swelling pre- and post-application of inflammogen for each ear was calculated, and the average for the two ears of each mouse taken. The difference in mean swelling of each test group compared to the group given vehicle alone was calculated using a general ANOVA using Dunnett's Multiple Comparison test when multiple compounds were tested in the one experiment or a two-tailed unpaired t-test when only one compound was tested (Prism 4, Graphpad Software).

[1] = Free radical scavenging (DPPH); assay type: biochemical; settings: DPPH 0.1 mM, 20 minutes, 517 nm; read-out: Free radical scavenging ability EC50
Method: The antioxidant (free radical trapping) activity of test compounds was assessed using the stable free radical compound 2,2-diphenyl-1-picrylhydrazyl (DPPH). A stock solution of DPPH was prepared at a concentration of 0.1 mM in ethanol and mixed for 10 minutes prior to use. Compound (1) was reacted with DPPH for 20 minutes, after which time the absorbance at 517 nm was determined. The change in absorbance at 517 nm was compared to a reagent blank (DPPH with ethanol alone). The IC50 value was estimated as the concentration of the test compound that caused a 0.6 change in absorbance (with 1.2 absorbance units representing total scavenging of the DPPH radical).

HUVECs = test: Microscopic appearance of HUVECs; assay type: cell-based, human
Method: An effect on cell growth was observed microscopically at 100 μM but not at the lower doses. Normal HUVECs were predominantly epithelioid but included some spindle shaped cells. Cells were mainly healthy and viable, as indicated by their translucent appearance and adherence to the culture dish. Floating cells were presumed non-viable.

TNFα = TNFα synthesis in RAW 264.7 (ELISA); assay type: cell-based, mouse; settings: LPS 50 ng/ml, 16 hrs
Method: The mouse macrophage cell line RAW 264.7 was cultured in DMEM supplemented with foetal calf serum (FCS), 2 mM glutamine and 50 U/ml penicillin/streptomycin. Cells were treated with either test compounds (in 0.025% DMSO) or vehicle alone, and added one hour before 50 ng/ml LPS. After incubation for 16 hrs, culture media was collected for PGE2 or TXB2 measurement by ELISA (Cayman Chemical), and TNFα measurement using an ELISA (Becton Dickinson).

[2] = test system: adjuvant-induced arthritis; test: Rat adjuvant-induced arthritis model; assay type: in vivo
Method: Male Dark Agouti (DA) strain (DA.CD45.1) rats were fed with either compound (1)-treated feed or placebo-treated feed for seven days prior to the injection of Complete Freund's adjuvant (0.1 ml) into the base of the tail. The treated feeds were continued throughout the experiment. Arthritis, which became evident at Day 8 was subjectively scored each day by an operator blinded to the identity of treatments and using a scoring system as follows: • 0 (no evidence of arthritis); • 1 (1 or 2 red, swollen joints but no other swelling); • 2 (carpus or tarsus swollen or more than 2 small joints swollen); • 3 (some red swollen joints and carpus or tarsus swollen, but not global swelling); • 4 (severe global swelling of the entire paw). Therefore, the disease score for individual rats ranged between 0 and 16. Rats (n=8 per group) were killed on Day 12. Data were analysed using a two way ANOVA (Prism 4 for Windows, GraphPad Software Inc).

THP-1 cells = test: Cytotoxicity in the THP-1 NFκB assay; assay type: cell-based, human; settings: at active concentrations

| Structure (SMILES) | NO (iNOS; 1 μM) [µM] | NO (iNOS; 10 μM) [µM] | Effect on cytokine synthesis (INF-γ, IL-6) (IFN-γ and IL-6) | % Change compared with vehicle (AA-induced ear swelling) [%] | Change in ear thickness (mean ± SD, ×0.01 mm) (AA-induced ear swelling) [×0.01 mm] | EC50 [1] [µM] | Microscopic appearance of treated cells (HUVECs) | TNFα (TNFα; 1 μM) [pg/mL] | TNFα (TNFα; 10 μM) [pg/mL] | NO (μM) (iNOS; 1 μM) | Joint score (mean ± SD) ([2]; Day 7, treated feed, score 0-16) | Joint score (mean ± SD) ([2]; Day 8, placebo 0.38 ± 0.52) | Joint score (mean ± SD) ([2]; Day 9, placebo 4.75 ± 1.28) | Joint score (mean ± SD) ([2]; Day 10, placebo 7.75 ± 1.39) | Joint score (mean ± SD) ([2]; Day 11, placebo 11.75 ± 1.04) | Joint score (mean ± SD) ([2]; Day 12, placebo 14.13 ± 1.46) | Arthritis score compared with placebo feed (in words) ([2]; two way ANOVA) | Cytotoxicity (THP-1 cells) |
| --- | --- | --- | --- | --- | --- | --- | --- | --- | --- | --- | --- | --- | --- | --- | --- | --- | --- | --- |
| O=C(O)C1CCCN1Cc1cc2c(cc1O)OCC(c1ccc(O)cc1)=C2 (centres unmarked) [Compound (3)] | 31.33 ± 0.16 | 21.79 ± 0.82 | did decrease the cytokines produced by T cells in particular | −5.9 | 22.2 ± 1.9 | 13.6 | appeared healthy | 26677.52 ± 815.64 | 45429.44 ± 1630.68 | – | – | – | – | – | – | – | – | – |
| CN(C)Cc1cc2c(cc1O)OCC(c1ccc(O)cc1)=C2 [Compound (1)] | – | 5.29 ± 0.15 | concomitant reduction on the synthesis of INF-γ and IL-6 | −7.0 | 24.1 ± 0.1 | 18.8 | appeared healthy | 40002.31 ± 694.8 | 41958.94 ± 837.04 | 17.27 ± 0^ μM | 0 | 0.5 ± 0.53 | 3.25 ± 1.58 | 6.25 ± 1.49 | 9.25 ± 1.28 | 12.75 ± 2.92 | statistically significant (p=0.008) reduction in arthritis score | absence of cytotoxicity |
